Target: T1, His6-RMDPa (Pseudomonas aeruginosa, UniProt Q9HTB6)
T1 sequence (Q9HTB6 2-304 limits assumed): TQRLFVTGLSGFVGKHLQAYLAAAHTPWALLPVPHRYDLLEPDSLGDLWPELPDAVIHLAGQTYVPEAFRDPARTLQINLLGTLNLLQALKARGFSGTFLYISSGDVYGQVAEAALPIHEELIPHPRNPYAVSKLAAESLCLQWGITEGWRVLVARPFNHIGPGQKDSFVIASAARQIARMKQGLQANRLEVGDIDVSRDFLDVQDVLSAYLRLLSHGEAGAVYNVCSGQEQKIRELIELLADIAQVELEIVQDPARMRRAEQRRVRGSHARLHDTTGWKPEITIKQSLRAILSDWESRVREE
Assay: capillary electrophoresis and NMR of product
Assay type: biochemical
Settings: with GDP-6-deoxy-D-lyxo-hexos-4-ulose; hydride donor; 37 °C, pH 7.5

## NC(=O)C1=CN([C@@H]2O[C@H](COP(=O)(O)OP(=O)(O)OC[C@H]3O[C@@H](n4cnc5c(N)ncnc54)[C@H](OP(=O)(O)O)[C@@H]3O)[C@@H](O)[C@H]2O)C=CC1 [NADPH]
  capillary electrophoresis and NMR of product: in the presence of excess NADPH, His6-RMDPa catalyzed the conversion

— publication PMC4381037 (The FEBS journal, 2009)
